Toxic doses and inconclusive results are not listed.
System: CD2F1 mice, L1210 leukemia ip, survival T/C
Test: NCI In Vivo Anticancer Drug Screen. Data for tumor model L1210 Leukemia (intraperitoneal) in CD2F1 (CDF1) mice
Conditions: higher = longer survival
How it was run: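 Compound-dosed mice with transplantable tumor versus matched vehicle controls; endpoint ratio T/C reported.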

[1] = endpoint: mean survival time, dose: 100.0 mg/kg/injection, schedule: Q01DX009 (ip), vehicle: saline with Tween-80
[2] = endpoint: mean survival time, dose: 100.0 mg/kg/injection, schedule: Q04DX003 (ip), vehicle: saline with Tween-80
[3] = endpoint: mean survival time, dose: 200.0 mg/kg/injection, schedule: Q01DX009 (ip), vehicle: saline with Tween-80
[4] = endpoint: mean survival time, dose: 200.0 mg/kg/injection, schedule: Q04DX003 (ip), vehicle: saline with Tween-80
[5] = endpoint: mean survival time, dose: 400.0 mg/kg/injection, schedule: Q04DX003 (ip), vehicle: saline with Tween-80
[6] = endpoint: mean survival time, dose: 100.0 mg/kg/injection, schedule: Q04DX002 (ip), vehicle: saline with Tween-80
[7] = endpoint: mean survival time, dose: 200.0 mg/kg/injection, schedule: Q04DX002 (ip), vehicle: saline with Tween-80
[8] = endpoint: mean survival time, dose: 400.0 mg/kg/injection, schedule: Q04DX002 (ip), vehicle: saline with Tween-80
[9] = endpoint: mean survival time, dose: 100.0 mg/kg/injection, schedule: Q04DX003 (ip), vehicle: saline
[10] = endpoint: mean survival time, dose: 200.0 mg/kg/injection, schedule: Q04DX003 (ip), vehicle: saline

With `CCCCNC(=O)Nc1ccccc1Cl` the T/C [1] was 91 % of control, the T/C [2] was 101 % of control and the T/C [3] was 94 % of control. For the same molecule, the T/C [4] was 100 % of control, the T/C (endpoint: mean survival time, dose: 400.0 mg/kg/injection, schedule: Q01DX009 (ip), vehicle: saline with Tween-80) was 100 % of control and the T/C [5] was 92 % of control.
With `CC12CCC(=O)C=C1CC(CC(=O)O)CC2` (stereo unspecified) the T/C [6] was 100 % of control, the T/C [7] was 108 % of control and the T/C [8] was 104 % of control.
For `COc1cc2c(cc1OC)C(c1cc(OC)c(OC)c(OC)c1)=NCC2`, the T/C [6] was 104 % of control, the T/C [7] was 104 % of control and the T/C [4] was 87 % of control. For the same molecule, the T/C [8] was 100 % of control and the T/C [5] was 87 % of control.
In the case of `CO[C@@H]1C2=CC=CC=C[C@H]2n2c(=O)n(C)c(=O)n21`, the T/C (endpoint: median survival time, dose: 37.5 mg/kg/injection, schedule: Q01DX005 (ip), vehicle: other) is reported as 95 % of control, the T/C (endpoint: median survival time, dose: 75.0 mg/kg/injection, schedule: Q01DX005 (ip), vehicle: other) is reported as 100 % of control and the T/C (endpoint: median survival time, dose: 150.0 mg/kg/injection, schedule: Q01DX005 (ip), vehicle: other) is reported as 95 % of control.
In the case of `CC([NH-])CC[NH-].O=S(=O)(O)O.[Pt+2]` (stereo unspecified), the T/C (endpoint: mean survival time, dose: 6.25 mg/kg/injection, schedule: Q04DX003 (ip), vehicle: saline) is reported as 158 % of control.
With `COC(=O)C(Br)C1CCCCC1` (stereo unspecified) the T/C (endpoint: mean survival time, dose: 50.0 mg/kg/injection, schedule: Q01DX009 (ip), vehicle: saline with Tween-80) was 95 % of control, the T/C [1] was 102 % of control and the T/C [2] was 100 % of control. The T/C [3] was 93 % of control and the T/C [4] was 102 % of control.
`CC(C)(C)NC(=O)Nc1ccc(Cl)c(Cl)c1` was tested, and the T/C (endpoint: mean survival time, dose: 100.0 mg/kg/injection, schedule: Q01DX001 (ip), vehicle: saline with Tween-80) was 93 % of control, the T/C (endpoint: mean survival time, dose: 200.0 mg/kg/injection, schedule: Q01DX001 (ip), vehicle: saline with Tween-80) was 88 % of control and the T/C (endpoint: mean survival time, dose: 400.0 mg/kg/injection, schedule: Q01DX001 (ip), vehicle: saline with Tween-80) was 93 % of control.
With `Cc1ccc(Nc2nc(N)nc(N)c2N=O)cc1C` the T/C (endpoint: mean survival time, dose: 50.0 mg/kg/injection, schedule: Q01DX001 (ip), vehicle: Klucel (hydroxypropylcellulose) (HPC)) was 90 % of control, the T/C (endpoint: mean survival time, dose: 100.0 mg/kg/injection, schedule: Q01DX001 (ip), vehicle: Klucel (hydroxypropylcellulose) (HPC)) was 87 % of control and the T/C (endpoint: mean survival time, dose: 200.0 mg/kg/injection, schedule: Q01DX001 (ip), vehicle: Klucel (hydroxypropylcellulose) (HPC)) was 98 % of control.
`O=C1C=C(O)c2ccccc2C1=O.[Ag]` was tested, and the T/C (endpoint: mean survival time, dose: 12.5 mg/kg/injection, schedule: Q01DX001 (ip), vehicle: saline with Tween-80) was 97 % of control and the T/C (endpoint: mean survival time, dose: 25.0 mg/kg/injection, schedule: Q01DX001 (ip), vehicle: saline with Tween-80) was 93 % of control.
With `CCOCCNCc1ccc(Cl)cc1Cl` the T/C [2] was 91 % of control and the T/C [4] was 94 % of control.
`CCN(CC)CC(O)CNc1cc(C)nc(/N=C(\N)Nc2ccc(Cl)c(Cl)c2)n1` (stereo unspecified) was tested, and the T/C (endpoint: mean survival time, dose: 6.25 mg/kg/injection, schedule: Q01DX009 (ip), vehicle: saline with Tween-80) was 98 % of control, the T/C (endpoint: mean survival time, dose: 12.5 mg/kg/injection, schedule: Q01DX009 (ip), vehicle: saline with Tween-80) was 104 % of control and the T/C (endpoint: mean survival time, dose: 25.0 mg/kg/injection, schedule: Q01DX009 (ip), vehicle: saline with Tween-80) was 106 % of control.
`Cc1cccc(C(=O)OCCBr)c1` was tested, and the T/C (endpoint: mean survival time, dose: 75.0 mg/kg/injection, schedule: Q01DX009 (ip), vehicle: saline with Tween-80) was 102 % of control.
With `O=C(O)C1CCC=CCC1` the T/C (endpoint: mean survival time, dose: 100.0 mg/kg/injection, schedule: Q04DX003 (ip), vehicle: other) was 103 % of control, the T/C (endpoint: mean survival time, dose: 200.0 mg/kg/injection, schedule: Q04DX003 (ip), vehicle: other) was 94 % of control and the T/C (endpoint: mean survival time, dose: 400.0 mg/kg/injection, schedule: Q04DX003 (ip), vehicle: other) was 89 % of control.
With `Cc1cccc(Br)[n+]1[O-]` the T/C [9] was 92 % of control and the T/C [10] was 101 % of control.
In the case of `CS(=O)(=O)c1cnnc2ccccc12`, the T/C [2] is reported as 98 % of control, the T/C [4] is reported as 93 % of control and the T/C [5] is reported as 86 % of control.
`CC1=CCCC1` was tested, and the T/C [9] was 98 % of control, the T/C [10] was 101 % of control and the T/C (endpoint: mean survival time, dose: 400.0 mg/kg/injection, schedule: Q04DX003 (ip), vehicle: saline) was 95 % of control.
For `CCCC(CCC)=NCCN=C(CCC)CCC`, the T/C (endpoint: mean survival time, dose: 100.0 mg/kg/injection, schedule: Q04DX003 (ip), vehicle: saline sonified) was 97 % of control, the T/C (endpoint: mean survival time, dose: 200.0 mg/kg/injection, schedule: Q04DX003 (ip), vehicle: saline sonified) was 97 % of control and the T/C (endpoint: mean survival time, dose: 400.0 mg/kg/injection, schedule: Q04DX003 (ip), vehicle: saline sonified) was 97 % of control.

Source: PubChem BioAssay AID256 (DTP/NCI, 2004)
